Measured values taken from ChEMBL document CHEMBL1145141, “New 2-bromomethyl-8-substituted-benzo[c]chromen-6-ones. Synthesis and biological properties” (Bioorg Med Chem Lett, 2005).
Several values for one entry are separate records, joined by “and”; a condition that tells them apart may be missing. Identical values can stand only once.

Key:
[1] = biological target: Nitric oxide synthase 1 (Homo sapiens) (UniProt P29475); experiment: Inhibitory activity against Neuronal nitric oxide synthase
[2] = biological target: Nitric oxide synthase, inducible (Homo sapiens) (UniProt P35228); experiment: Inhibitory activity against Inducible nitric oxide synthase
[3] = Inhibitory concentration against Alpha-chymotrypsin
[4] = biological target: Human immunodeficiency virus type 1 protease (Human immunodeficiency virus 1, UniProt Q72874); experiment: Inhibitory concentration against HIV aspartyl protease
[5] = biological target: T1, Nitric oxide synthase 3 (Homo sapiens) (UniProt P29474); experiment: Inhibitory activity against Endothelial nitric oxide synthase
T1 sequence (whole entry): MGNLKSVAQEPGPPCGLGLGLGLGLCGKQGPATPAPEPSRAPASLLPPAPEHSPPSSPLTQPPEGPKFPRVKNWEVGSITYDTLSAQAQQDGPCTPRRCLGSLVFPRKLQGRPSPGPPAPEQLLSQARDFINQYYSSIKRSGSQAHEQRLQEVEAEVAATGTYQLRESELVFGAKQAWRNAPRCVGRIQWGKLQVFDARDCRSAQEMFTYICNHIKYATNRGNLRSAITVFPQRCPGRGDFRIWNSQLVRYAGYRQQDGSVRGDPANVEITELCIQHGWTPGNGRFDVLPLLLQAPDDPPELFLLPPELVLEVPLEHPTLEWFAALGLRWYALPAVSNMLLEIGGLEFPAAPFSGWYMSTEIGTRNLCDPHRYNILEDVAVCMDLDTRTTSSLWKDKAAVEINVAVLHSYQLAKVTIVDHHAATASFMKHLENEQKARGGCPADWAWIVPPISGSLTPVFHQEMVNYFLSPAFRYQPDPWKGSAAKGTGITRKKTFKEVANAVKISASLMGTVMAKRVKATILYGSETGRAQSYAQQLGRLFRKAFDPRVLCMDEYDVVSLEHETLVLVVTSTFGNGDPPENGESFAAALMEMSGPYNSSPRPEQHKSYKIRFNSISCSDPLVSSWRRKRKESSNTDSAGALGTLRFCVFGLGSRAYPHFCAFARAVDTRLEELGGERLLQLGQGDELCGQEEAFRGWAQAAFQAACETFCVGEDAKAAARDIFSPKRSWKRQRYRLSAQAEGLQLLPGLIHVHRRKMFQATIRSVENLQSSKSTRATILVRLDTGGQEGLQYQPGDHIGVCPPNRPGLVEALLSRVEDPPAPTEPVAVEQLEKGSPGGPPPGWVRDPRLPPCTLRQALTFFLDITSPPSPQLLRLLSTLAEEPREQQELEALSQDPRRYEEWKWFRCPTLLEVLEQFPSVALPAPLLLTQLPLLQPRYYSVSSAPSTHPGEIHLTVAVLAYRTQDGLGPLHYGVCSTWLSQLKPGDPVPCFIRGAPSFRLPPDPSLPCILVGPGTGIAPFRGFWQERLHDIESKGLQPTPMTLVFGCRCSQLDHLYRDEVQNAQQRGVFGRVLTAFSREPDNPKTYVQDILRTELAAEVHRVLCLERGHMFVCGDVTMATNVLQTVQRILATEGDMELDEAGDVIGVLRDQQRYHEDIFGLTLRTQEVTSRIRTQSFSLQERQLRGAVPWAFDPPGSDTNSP

[6] = biological target: Human immunodeficiency virus type 1 protease (Human immunodeficiency virus 1) (UniProt Q72874); experiment: Initial effective dose against protease of human immunodeficiency virus type 1
[7] = biological target: Human immunodeficiency virus type 1 protease (Human immunodeficiency virus 1) (UniProt Q72874); experiment: Effective dose against protease of human immunodeficiency virus type 1
[8] = biological target: T2, Chymotrypsin-C (Homo sapiens, UniProt Q99895); experiment: Inhibitory concentration against Alpha-chymotrypsin; In active at 100 uM
T2 sequence (Q99895 whole entry): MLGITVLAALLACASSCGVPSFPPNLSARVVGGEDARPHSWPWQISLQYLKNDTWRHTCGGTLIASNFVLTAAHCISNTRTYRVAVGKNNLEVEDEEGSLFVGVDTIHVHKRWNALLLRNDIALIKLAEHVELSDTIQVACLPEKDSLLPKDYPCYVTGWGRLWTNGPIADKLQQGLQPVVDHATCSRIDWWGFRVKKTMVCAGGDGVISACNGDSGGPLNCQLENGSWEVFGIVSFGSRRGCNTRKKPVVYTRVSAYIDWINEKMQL

Nitric oxide synthase 1 (Homo sapiens), sequence (P29475 whole entry): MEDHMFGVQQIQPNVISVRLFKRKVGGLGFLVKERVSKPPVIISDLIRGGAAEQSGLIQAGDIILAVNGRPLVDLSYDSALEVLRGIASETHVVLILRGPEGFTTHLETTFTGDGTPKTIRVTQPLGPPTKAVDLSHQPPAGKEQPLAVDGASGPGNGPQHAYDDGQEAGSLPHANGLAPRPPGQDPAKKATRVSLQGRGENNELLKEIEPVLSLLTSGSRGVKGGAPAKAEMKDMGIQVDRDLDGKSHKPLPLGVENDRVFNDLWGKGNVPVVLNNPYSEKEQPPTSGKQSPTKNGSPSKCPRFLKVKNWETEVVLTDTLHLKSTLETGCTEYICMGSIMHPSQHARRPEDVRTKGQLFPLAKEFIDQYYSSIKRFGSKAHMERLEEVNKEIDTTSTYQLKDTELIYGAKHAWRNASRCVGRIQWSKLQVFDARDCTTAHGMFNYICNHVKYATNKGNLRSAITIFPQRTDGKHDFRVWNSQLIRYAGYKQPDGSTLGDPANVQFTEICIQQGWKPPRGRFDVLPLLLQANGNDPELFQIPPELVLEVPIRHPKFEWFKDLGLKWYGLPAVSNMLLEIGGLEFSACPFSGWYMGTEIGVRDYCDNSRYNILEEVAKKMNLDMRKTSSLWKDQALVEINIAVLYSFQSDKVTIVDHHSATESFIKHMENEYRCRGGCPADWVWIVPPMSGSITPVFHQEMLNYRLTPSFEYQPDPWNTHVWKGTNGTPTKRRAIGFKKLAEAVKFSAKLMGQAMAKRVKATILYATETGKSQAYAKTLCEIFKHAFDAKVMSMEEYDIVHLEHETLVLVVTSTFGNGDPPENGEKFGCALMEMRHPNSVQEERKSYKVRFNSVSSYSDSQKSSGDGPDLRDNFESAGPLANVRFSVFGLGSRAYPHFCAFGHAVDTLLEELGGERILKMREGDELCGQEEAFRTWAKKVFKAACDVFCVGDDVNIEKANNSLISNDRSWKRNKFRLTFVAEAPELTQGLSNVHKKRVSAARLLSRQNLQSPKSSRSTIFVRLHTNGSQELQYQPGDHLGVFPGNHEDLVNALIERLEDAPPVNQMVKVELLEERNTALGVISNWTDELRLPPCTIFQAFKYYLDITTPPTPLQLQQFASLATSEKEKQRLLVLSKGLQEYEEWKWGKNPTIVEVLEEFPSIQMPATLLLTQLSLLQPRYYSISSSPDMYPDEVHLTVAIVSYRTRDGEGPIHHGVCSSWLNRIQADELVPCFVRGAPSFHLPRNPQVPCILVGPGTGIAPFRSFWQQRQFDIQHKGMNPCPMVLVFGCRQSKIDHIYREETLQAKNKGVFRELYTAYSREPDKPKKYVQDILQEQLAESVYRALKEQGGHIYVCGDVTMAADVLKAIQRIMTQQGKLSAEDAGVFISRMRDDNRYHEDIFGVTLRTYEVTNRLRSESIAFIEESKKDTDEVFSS
Nitric oxide synthase, inducible (Homo sapiens), sequence (P35228 whole entry): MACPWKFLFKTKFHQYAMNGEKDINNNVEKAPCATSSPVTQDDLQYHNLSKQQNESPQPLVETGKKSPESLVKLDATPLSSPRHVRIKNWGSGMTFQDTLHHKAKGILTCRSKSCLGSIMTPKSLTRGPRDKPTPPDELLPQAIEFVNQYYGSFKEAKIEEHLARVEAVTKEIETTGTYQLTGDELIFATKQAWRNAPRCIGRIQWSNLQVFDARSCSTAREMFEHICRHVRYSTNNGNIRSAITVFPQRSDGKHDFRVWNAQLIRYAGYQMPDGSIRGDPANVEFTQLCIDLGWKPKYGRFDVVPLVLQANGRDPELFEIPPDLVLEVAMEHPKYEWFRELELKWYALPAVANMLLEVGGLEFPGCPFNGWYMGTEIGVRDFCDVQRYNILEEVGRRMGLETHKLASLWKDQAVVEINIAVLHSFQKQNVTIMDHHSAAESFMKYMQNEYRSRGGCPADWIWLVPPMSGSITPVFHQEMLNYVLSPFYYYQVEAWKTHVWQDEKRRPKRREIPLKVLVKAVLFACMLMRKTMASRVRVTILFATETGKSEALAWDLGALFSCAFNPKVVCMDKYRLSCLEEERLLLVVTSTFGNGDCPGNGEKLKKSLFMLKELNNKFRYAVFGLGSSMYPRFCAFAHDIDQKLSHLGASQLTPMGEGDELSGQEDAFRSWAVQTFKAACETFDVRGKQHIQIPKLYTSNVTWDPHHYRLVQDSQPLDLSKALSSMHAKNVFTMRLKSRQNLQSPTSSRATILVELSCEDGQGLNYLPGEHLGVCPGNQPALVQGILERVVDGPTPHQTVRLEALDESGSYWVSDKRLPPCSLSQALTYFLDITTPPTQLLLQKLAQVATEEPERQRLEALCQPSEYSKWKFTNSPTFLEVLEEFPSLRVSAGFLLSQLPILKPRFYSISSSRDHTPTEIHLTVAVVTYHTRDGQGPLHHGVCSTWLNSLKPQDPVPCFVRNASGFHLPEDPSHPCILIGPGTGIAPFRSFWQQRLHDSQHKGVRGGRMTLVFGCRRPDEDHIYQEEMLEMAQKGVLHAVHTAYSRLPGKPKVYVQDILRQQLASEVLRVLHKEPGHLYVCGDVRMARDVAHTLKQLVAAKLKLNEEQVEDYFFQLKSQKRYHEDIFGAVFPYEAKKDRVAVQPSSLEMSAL

## Nc1ccc2c(c1)c(=O)oc1ccc(CBr)cc12
[1]
  Inhibition: 200 µM
[2]
  Inhibition: 110 µM
[3]
  IC50: > 100 µM and ~100 µM
[4]
  IC50: 50 µM
[5]
  Inhibition: 120 µM

## CCC[C@@]1(CCc2ccccc2)CC(O)=C([C@H](CC)c2cccc(NS(=O)(=O)c3ccc(C(F)(F)F)cn3)c2)C(=O)O1
[6]
  ED50: 300 µM
[7]
  ED90: 0.1 µM

## Cc1ccc2oc(=O)c3cc(N)ccc3c2c1
[1]
  Inhibition: 900 µM
[2]
  Inhibition: 150 µM
[3]
  IC50: > 100 µM
[4]
  IC50: ~100 µM
[8]
  IC50: Inactive
[5]
  Inhibition: 600 µM

## O=[N+]([O-])c1cccc2cn[nH]c12
[1]
  Inhibition: 15 µM
[2]
  Inhibition: 15 µM
[5]
  Inhibition: 8 µM

## Cc1ccc2oc(=O)c3cc([N+](=O)[O-])ccc3c2c1
[3]
  IC50: > 100 µM
[4]
  IC50: 50 µM

## O=c1oc2ccc(CBr)cc2c2ccc([N+](=O)[O-])cc12
[1]
  Inhibition: 250 µM
[2]
  Inhibition: 60 µM
[3]
  IC50: > 100 µM
[4]
  IC50: 10 µM
[5]
  Inhibition: 120 µM
